# Data as given in ChEMBL document CHEMBL1201862, “PubChem BioAssay data set” (2004).
# Active and inactive are the calls of the source.
# Legend:
# [1] = target: Luciferin 4-monooxygenase (Photinus pyralis, UniProt P08659); test: inhibition of purified Photinus pyralis luciferase – biochemical, luminescence, dose response (AID 1891)
# [2] = Luminescence Cell-Based Dose Confirmation HTS to Identify Inhibitors of Platelet Dense Granule Release. [Related pubchem assays: 1663 (Primary HTS), 1678 (Summary of Project)]; format: functional
# [3] = NIH3T3 cell viability loss – ATP luminescence, mouse fibroblasts, counter-screen, dose response (AID 2010); format: functional, cell-based;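 further: cells exposed to compound for about 90 hours before reading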
# [4] = Trypanosoma cruzi growth suppression in host cells – NIH3T3 host cells, beta-gal luminescence, confirmation (AID 2044); format: functional, cell-based;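 further: intracellular parasites grown in NIH/3T3 mouse fibroblasts as host cells; luminescent beta-galactosidase reporter signal from transgenic T. cruzi replicating inside host cells; inhibitors lower the luminescence signal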
# [5] = cells
# [6] = system: Vero; test: cells; format: functional, Chlorocebus sabaeus
# [7] = system: Vero; test: cells; format: functional, cell-based, Chlorocebus sabaeus
# [8] = alpha-synuclein stem-loop luciferase translation blockers – H4 neuroglioma cells, luminescence, confirmation (AID 1988); format: functional, cell-based
# [9] = target: T1, Ubiquitin-conjugating enzyme E2 N (Homo sapiens, UniProt P61088); format: functional;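 further: Dose-response confirmation in a TR-FRET assay detecting UBC13-driven polyubiquitin chain formation, inhibition measured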
# T1 sequence (P61088 whole entry): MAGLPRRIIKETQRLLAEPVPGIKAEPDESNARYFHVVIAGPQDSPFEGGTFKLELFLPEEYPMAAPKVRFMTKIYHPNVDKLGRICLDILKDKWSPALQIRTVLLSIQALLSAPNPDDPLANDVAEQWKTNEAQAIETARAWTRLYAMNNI
# [10] = Luminescence Cell-Based Dose Response HTS to Identify Inhibitors of 5'UTR Stem-Loop Driven Prion Protein mRNA Translation in H4 Neuroglioblastoma Cells. [Related pubchem assays: 1827 (Project Summary), 1813 (Primary HTS)]; format: functional
# [11] = luciferase reporter signal suppression in cells – H4 neuroglioma cells, luminescence, dose response (AID 1990); format: functional, cell-based
# [12] = system: Streptococcus sp. 'group A'; test: Streptococcus pyogenes SK(-)GAS viability under kanamycin – luminescence, BacTiterGlo, confirmation, counter-screen for streptokinase expression inhibitor project, dose response (AID 1900); format: functional, organism-based
# [13] = cells; format: functional
# [14] = microbe, parasite or virus in culture; format: functional; details: Mycobacterium tuberculosis
# [15] = THP-1 cell cytotoxicity, dose response, cytotoxicity control for non-replicating M. tuberculosis project (AID 489025); format: functional
# [16] = system: Streptococcus; test: GAS UMAA2166 growth inhibition – luminescence, BacTiterGlo, counter-screen for streptokinase expression inhibitor project, dose response (AID 1915); format: functional, organism-based;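 further: potency for reduction of bacterial viability or growth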
# [17] = target: T2, Short transient receptor potential channel 4 (Mus musculus, UniProt Q9QUQ5); test: block of DAMGO-driven TRPC4 calcium entry – cell-based, HEK293 TRPC4/mu-opioid, Fluo-4 calcium, dose response (AID 434942); format: functional;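 further: potency of inhibitors blocking the TRPC4 calcium response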
# T2 sequence (Q9QUQ5 whole entry): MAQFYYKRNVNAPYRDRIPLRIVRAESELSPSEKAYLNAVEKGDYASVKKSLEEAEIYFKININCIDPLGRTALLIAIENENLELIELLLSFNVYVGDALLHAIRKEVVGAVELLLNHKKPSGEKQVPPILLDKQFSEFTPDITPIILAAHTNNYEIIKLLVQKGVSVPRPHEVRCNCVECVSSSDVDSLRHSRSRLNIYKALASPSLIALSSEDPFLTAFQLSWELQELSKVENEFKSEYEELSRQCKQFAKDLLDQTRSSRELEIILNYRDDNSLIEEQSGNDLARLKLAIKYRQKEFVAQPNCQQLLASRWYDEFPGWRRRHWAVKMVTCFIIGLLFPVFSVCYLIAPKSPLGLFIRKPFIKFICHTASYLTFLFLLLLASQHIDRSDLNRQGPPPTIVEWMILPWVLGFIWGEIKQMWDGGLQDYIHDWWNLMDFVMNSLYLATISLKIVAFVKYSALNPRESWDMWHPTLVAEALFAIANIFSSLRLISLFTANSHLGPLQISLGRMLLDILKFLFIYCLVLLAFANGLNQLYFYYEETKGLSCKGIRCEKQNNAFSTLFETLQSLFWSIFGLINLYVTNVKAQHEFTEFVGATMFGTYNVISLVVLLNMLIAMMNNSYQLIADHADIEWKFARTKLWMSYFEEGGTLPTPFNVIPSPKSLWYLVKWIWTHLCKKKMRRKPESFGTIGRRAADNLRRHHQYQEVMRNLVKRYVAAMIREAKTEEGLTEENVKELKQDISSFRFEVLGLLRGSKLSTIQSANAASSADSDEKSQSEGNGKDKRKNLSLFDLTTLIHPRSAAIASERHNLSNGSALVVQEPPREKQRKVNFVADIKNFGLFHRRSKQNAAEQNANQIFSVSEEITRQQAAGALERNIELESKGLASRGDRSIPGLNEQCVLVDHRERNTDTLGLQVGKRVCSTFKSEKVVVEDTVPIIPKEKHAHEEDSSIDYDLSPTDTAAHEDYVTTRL
# [18] = viability of PTEN-deleted HCT116 cells – cell-based, HCT116 PTEN knockout, dose response (AID 1047); format: functional;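 further: HCT116 colon tumor cells with PTEN knocked out; cells exposed to compound for 60 hours before readout; potency for loss of cell viability measured by luminescence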
# [19] = viability of HCT116 lacking mutant beta-catenin – cell-based, human colon tumor, dose response (AID 1045); format: functional;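 further: HCT116 colon tumor cells with beta catenin knocked out; cells exposed to compound for 60 hours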
# [20] = target: T3, Protein RecA (Mycobacterium tuberculosis, UniProt P9WHJ3); test: Fluorescence Cell-Free Homogeneous Dose Retest to Identify Inhibitors of RecA-Intein Splicing Activity. [Related pubchem assays (depositor defined):AID2097, AID2223, AID489010, AID492950]; format: functional
# T3 sequence (P9WHJ3 whole entry): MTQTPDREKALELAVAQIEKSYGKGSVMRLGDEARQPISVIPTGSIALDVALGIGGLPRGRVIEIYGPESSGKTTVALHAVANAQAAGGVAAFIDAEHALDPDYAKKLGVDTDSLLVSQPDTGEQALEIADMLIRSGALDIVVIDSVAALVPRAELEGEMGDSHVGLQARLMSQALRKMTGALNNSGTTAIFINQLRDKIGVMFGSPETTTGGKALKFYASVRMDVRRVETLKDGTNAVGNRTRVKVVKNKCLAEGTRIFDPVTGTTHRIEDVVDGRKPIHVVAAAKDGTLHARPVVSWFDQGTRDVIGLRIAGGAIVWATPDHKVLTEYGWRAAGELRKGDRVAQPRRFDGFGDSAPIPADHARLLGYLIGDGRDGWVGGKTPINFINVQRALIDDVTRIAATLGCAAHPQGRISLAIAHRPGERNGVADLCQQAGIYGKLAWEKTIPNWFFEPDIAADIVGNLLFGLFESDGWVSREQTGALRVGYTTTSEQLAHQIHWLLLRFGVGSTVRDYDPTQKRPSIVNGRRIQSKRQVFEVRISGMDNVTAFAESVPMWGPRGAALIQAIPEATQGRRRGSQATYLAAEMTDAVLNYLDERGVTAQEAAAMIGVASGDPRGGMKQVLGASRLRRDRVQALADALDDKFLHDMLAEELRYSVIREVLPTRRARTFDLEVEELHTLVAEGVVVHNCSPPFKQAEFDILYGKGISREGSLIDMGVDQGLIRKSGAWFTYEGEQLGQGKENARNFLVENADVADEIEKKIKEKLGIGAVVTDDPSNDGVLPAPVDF
# [21] = target: T4, Replicative DNA helicase DnaB (Mycobacterium tuberculosis, UniProt P9WMR3); test: DnaB intein splicing inhibitors, dose response, biochemical, cell-free fluorescence (AID 449749); format: functional
# T4 sequence (P9WMR3 whole entry): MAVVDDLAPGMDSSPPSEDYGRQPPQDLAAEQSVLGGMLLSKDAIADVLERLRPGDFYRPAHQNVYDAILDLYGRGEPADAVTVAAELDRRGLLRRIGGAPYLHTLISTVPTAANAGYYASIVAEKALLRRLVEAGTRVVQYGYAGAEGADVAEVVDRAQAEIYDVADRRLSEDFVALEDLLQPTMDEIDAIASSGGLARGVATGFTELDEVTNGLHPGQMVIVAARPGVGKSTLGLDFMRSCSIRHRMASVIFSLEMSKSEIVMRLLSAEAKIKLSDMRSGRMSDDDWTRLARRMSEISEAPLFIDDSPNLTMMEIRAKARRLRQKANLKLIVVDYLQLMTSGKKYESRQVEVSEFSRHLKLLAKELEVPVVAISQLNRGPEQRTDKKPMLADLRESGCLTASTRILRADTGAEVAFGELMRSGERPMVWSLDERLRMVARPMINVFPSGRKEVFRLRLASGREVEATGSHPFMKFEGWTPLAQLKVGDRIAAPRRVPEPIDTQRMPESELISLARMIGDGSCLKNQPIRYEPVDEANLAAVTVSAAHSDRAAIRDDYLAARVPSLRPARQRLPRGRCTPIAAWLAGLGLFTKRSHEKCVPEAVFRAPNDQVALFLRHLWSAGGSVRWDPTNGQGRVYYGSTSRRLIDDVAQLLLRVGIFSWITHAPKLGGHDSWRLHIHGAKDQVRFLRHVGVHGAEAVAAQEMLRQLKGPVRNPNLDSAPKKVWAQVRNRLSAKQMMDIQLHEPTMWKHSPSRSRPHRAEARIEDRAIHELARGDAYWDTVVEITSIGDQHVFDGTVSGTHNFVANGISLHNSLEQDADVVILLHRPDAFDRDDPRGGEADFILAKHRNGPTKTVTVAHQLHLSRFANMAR
# [22] = target: Large T antigen (Simian virus 40, UniProt P03070); format: functional, Betapolyomavirus macacae;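 further: Confirmatory-stage PubChem screen for compounds that inhibit SV40 T antigen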
# Sequence of Large T antigen (P03070 whole entry): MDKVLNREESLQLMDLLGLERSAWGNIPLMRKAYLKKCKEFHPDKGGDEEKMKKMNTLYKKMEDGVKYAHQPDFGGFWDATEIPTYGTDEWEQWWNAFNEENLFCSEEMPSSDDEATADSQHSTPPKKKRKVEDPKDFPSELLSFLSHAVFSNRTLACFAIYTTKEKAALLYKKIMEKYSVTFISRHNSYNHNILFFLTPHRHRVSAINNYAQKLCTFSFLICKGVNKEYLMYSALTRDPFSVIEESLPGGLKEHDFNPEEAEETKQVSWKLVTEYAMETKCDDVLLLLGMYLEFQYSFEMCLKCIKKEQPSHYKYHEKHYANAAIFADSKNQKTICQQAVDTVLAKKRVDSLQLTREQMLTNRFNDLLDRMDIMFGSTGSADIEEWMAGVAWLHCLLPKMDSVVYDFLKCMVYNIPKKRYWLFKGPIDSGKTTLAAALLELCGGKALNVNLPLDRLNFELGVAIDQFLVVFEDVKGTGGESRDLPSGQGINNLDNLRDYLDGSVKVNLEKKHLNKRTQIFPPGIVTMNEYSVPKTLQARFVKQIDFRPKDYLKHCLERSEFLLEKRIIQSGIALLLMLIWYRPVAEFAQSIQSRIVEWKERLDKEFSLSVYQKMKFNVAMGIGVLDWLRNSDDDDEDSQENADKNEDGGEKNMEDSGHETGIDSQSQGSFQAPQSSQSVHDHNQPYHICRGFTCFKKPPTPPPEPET
# Sequence of Luciferin 4-monooxygenase (P08659 whole entry): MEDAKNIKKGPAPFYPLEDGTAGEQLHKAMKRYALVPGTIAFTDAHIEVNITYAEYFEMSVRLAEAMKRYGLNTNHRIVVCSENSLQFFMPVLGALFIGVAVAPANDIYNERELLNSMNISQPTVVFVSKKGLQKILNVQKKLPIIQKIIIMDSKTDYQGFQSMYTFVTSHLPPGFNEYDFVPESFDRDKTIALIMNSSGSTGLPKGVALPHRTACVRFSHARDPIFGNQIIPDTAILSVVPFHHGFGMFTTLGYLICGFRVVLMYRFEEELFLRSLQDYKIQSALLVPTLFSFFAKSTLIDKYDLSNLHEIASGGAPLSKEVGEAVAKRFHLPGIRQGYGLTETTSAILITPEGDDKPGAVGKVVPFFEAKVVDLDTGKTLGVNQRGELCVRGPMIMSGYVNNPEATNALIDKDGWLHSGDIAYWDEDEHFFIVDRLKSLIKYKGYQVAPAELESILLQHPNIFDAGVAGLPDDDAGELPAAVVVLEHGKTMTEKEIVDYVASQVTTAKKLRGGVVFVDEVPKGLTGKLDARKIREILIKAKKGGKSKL
smiles,measurement,setting,value
COc1ccc(N2CC(C(=O)NCc3ccccc3)CC2=O)cc1 (centres undefined),EC50,[1],> 112 µM (not active)
same,EC50,[2],> 112 µM (not active)
Cc1ccc(C(=O)c2c(NC(=O)c3ccncc3)sc3c2CCCC3)cc1,EC50,[3],> 60 µM (not active)
same,EC50,[4],< 100 nM (active)
same,EC50,[5],266 nM (active)
COc1cc2cc(C(N)=O)c(N)nc2cc1OC,EC50,[1],> 112 µM (not active)
same,EC50,[2],40 µM (active)
Cc1ccc(O)c(C(=O)CC(=O)c2cccc(F)c2)c1,CC50,"[6]; Chlorocebus sabaeus, Vero",> 25 µM (active)
same,IC50,"[7]; Chlorocebus sabaeus, Vero",21.1 µM (active)
COC(=O)c1c(NC(=O)c2ccc(OC(C)C)cc2)sc2c1CC(C)(C)NC2(C)C,EC50,[8],8.31 µM (active)
same,IC50,[9],> 20 µM (inactive)
same,EC50,[10],8.41 µM (active)
same,EC50,[11],8.35 µM (active)
same,CC50,"[6]; Chlorocebus sabaeus, Vero",> 25 µM (active)
same,IC50,"[7]; Chlorocebus sabaeus, Vero",23.3 µM (active)
Cc1ccc2c(CN3CCN(Cc4ccccc4)CC3)cc(=O)oc2c1C,EC50,[3],> 60 µM (not active)
same,EC50,[4],< 100 nM (active)
same,EC50,[5],65 nM (active)
CCOC(=O)c1nc(O)c2c3c(sc2n1)CCCC3,EC50,[2],> 112 µM (not active)
CCOC(=O)c1nc2sc3c(c2c(=O)[nH]1)CCCC3,EC50,[1],> 112 µM (not active)
Cc1cc2nc(N/C(N)=N/C(=O)C(C)C)nc(C)c2cc1C,EC50,[12],> 150 µM (not active)
same,IC50,[13],20.3 µM (active)
same,CC50,[14],> 40 µM (active)
same,CC50,[15],17 µM (active)
same,EC50,[16],> 150 µM (not active)
O=C(CSc1nc2ccccc2n1-c1ccccc1)Nc1ncc(Cl)cc1Cl,CC50,"[6]; Chlorocebus sabaeus, Vero",22.1 µM (active)
same,IC50,"[7]; Chlorocebus sabaeus, Vero",4.63 µM (active)
CCc1ccc2oc(=O)cc(CN3CCN(Cc4ccccc4)CC3)c2c1,EC50,[3],> 60 µM (not active)
same,EC50,[4],< 100 nM (active)
same,EC50,[5],127 nM (active)
CCN(CC)CCN(C(=O)C1CCCCC1)c1nc2cc3c(cc2s1)OCO3,EC50,[3],> 60 µM (not active)
same,EC50,[4],< 100 nM (active)
same,EC50,[5],514 nM (active)
CCOC(=O)C1(CCOc2ccccc2)CCN(Cc2cccs2)CC1,EC50,[17],4.22 µM (active)
Fc1ccc(C2CC(c3ccccc3)n3ncnc3N2)cc1 (centres undefined),EC50,[1],> 112 µM (not active)
same,EC50,[2],> 112 µM (not active)
Cn1nc(C(=O)OCC(=O)Nc2sccc2C(N)=O)c2ccccc2c1=O,EC50,[1],> 112 µM (not active)
same,EC50,[2],> 112 µM (not active)
COc1ccc(Br)cc1CN1CCN(C(=O)Cc2ccccc2)CC1,EC50,[17],6.68 µM (active)
COc1ccc(Cn2nnnc2C(c2cc3cc(C)ccc3nc2O)N2CCN(C)CC2)cc1 (centres undefined),EC50,[17],1.88 µM (active)
CCc1ccc(C2=NN(c3ccc(S(N)(=O)=O)cc3)C(c3ccc(F)cc3)C2)cc1 (centres undefined),EC50,[18],16.6 µM (active)
same,CC50,[14],27.6 µM (active)
same,EC50,[19],17.9 µM (active)
O=C(CCl)Nc1sccc1C(=O)c1ccccc1,EC50,[20],4.78 µM (active)
same,CC50,[14],18.1 µM (active)
same,AC50,[21],4.8 µM (active)
N=c1c2c(n(Cc3ccccc3)c3c1CCC3)CCC2,EC50,[17],3.35 µM (active)
CC(C)COc1ccc(C(=O)Nc2ccc(NC(=O)c3ccco3)c(Cl)c2)cc1,EC50,[1],> 112 µM (not active)
same,EC50,[2],> 112 µM (not active)
CNCCNC[C@H](Cc1cccc2ccccc12)NCCc1ccccc1,IC50,"[7]; Chlorocebus sabaeus, Vero",20.4 µM (active)
CCOC(=O)Cc1cc(=O)n(-c2nc3ccccc3s2)[nH]1,IC50,[22],> 100 µM (active)
COc1cc(/C=N/N(C)C)cc(Br)c1O,IC50,[22],5.17 µM (active)
C[C@]12CCCC[C@@H]1CC[C@@H]1[C@@H]2CC[C@@]2(C)[C@H]1CC[C@@]2(O)CNCCO,IC50,[9],> 20 µM (inactive)
same,CC50,[6],19.4 µM (active)
same,CC50,"[6]; Chlorocebus sabaeus, Vero",18.4 µM (active)
same,IC50,"[7]; Chlorocebus sabaeus, Vero",> 12.5 µM (active)
same,IC50,[7]; vero,9.19 µM (active)
Cc1[nH]c(=O)c(C#N)cc1-c1ccncc1 [MILRINONE],EC50,[1],> 112 µM (not active)
same,EC50,[2],0.634 µM (active)
